These results are taken from US11548870B2, “Compounds useful as inhibitors of helios protein” (Bristol-Myers Squibb Company, priority 2019, dated 2023).

For orientation: DC50 means the concentration at which degradation of the target reaches its halfway point. Read a high DC50 as a less potent degrader. As a reminder, the Dmax is the largest share of the target that was removed.

Values joined by “and” are separate entries in the source; they are usually repeats but may differ in a detail not shown here. Identical values can stand only once.

One test has as its target T1, Helios (Homo sapiens, UniProt Q96SW2+Q9UKS7).
T1 construct: fluorescently labelled antibodies against Helios and Ikaros; endogenous in cells; host or cells: Jurkat cells
Nature of the test: Helios Cellular Degradation Assay (flow cytometry, Helios-PE antibody staining, 72 h). The test is classed as cell-based. As to conditions: Jurkat cells, 72 h incubation, flow cytometry; for Dmax: Jurkat, read-out: Helios Dmax. In a few lines: (§1)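 Flow cytometry of fixed, permeabilized Jurkat cells stained with anti-Helios-PE and anti-Ikaros-Alexa488 (1 h, room temperature) measured remaining protein. Treatment lasted 72 h at 37 °C, 5% CO2, at 80,000 cells/well in RPMI with 10% FBS.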

The next test addresses T2, Ikaros (Homo sapiens, UniProt Q13422).
T2 construct: fluorescently labelled antibodies against Helios and Ikaros; endogenous in cells; host or cells: Jurkat cells
The experiment in a line: Helios Cellular Degradation Assay, Ikaros readout (flow cytometry, Ikaros-Alexa488 antibody staining, 72 h). The class given is cell-based. As to conditions: Jurkat cells, 72 h incubation, flow cytometry; for Dmax: Jurkat, read-out: Ikaros Dmax. The method in brief:
as §1

T2 sequence (Q96SW2 whole entry partner): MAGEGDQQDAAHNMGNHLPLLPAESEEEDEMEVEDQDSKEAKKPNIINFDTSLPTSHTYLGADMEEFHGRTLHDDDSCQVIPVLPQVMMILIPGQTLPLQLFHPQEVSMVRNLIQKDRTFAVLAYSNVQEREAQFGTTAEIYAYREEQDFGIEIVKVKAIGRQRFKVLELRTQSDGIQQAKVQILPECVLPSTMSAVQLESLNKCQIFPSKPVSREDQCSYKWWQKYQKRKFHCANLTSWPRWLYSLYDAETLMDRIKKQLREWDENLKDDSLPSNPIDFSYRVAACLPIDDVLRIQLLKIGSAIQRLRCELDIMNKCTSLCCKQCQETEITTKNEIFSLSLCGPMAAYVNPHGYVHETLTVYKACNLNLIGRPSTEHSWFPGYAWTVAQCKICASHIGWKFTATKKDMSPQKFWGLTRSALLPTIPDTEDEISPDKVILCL
T2 sequence (Q16531 whole entry partner): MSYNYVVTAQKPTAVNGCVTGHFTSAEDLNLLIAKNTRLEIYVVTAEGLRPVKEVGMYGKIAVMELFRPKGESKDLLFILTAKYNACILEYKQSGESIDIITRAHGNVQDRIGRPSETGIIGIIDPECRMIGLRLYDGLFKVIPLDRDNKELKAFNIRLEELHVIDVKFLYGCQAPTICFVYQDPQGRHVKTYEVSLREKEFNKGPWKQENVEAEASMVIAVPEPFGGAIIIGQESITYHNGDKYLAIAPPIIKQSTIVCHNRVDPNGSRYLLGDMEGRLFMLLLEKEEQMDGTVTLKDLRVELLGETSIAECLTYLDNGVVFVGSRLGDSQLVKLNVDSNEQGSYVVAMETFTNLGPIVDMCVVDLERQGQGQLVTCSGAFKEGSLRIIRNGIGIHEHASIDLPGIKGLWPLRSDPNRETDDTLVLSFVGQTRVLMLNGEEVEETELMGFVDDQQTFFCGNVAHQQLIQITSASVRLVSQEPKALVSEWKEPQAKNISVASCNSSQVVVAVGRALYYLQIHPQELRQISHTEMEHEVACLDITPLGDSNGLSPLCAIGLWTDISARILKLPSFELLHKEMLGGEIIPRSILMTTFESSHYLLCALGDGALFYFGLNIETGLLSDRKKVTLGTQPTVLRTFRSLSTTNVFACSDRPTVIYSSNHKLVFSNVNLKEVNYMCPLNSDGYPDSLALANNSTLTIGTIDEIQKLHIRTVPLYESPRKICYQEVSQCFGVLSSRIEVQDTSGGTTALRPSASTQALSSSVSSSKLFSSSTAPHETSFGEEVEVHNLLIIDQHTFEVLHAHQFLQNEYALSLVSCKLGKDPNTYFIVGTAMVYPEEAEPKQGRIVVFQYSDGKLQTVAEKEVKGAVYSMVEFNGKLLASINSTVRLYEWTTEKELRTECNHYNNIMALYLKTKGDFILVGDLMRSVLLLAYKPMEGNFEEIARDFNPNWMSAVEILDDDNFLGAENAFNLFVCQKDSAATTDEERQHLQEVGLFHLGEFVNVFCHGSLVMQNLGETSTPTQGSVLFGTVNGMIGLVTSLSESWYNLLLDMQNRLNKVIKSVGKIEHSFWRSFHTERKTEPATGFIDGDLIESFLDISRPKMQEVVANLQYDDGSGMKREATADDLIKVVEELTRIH
T2 sequence (Q13422 whole entry): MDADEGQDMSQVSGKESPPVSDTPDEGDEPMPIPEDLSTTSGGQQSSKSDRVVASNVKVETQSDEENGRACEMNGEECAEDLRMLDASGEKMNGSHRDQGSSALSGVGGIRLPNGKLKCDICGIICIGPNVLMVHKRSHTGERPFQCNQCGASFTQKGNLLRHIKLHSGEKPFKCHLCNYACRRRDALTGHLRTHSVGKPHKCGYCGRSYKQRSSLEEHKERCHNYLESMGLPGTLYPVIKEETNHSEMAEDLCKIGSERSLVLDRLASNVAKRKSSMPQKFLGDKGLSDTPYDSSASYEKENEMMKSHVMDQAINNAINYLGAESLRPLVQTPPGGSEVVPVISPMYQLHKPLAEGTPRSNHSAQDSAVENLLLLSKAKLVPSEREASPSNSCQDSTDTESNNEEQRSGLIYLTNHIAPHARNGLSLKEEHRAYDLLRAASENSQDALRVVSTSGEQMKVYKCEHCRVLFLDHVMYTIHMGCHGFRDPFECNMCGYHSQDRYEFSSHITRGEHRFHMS
T1 sequence (Q9UKS7 whole entry): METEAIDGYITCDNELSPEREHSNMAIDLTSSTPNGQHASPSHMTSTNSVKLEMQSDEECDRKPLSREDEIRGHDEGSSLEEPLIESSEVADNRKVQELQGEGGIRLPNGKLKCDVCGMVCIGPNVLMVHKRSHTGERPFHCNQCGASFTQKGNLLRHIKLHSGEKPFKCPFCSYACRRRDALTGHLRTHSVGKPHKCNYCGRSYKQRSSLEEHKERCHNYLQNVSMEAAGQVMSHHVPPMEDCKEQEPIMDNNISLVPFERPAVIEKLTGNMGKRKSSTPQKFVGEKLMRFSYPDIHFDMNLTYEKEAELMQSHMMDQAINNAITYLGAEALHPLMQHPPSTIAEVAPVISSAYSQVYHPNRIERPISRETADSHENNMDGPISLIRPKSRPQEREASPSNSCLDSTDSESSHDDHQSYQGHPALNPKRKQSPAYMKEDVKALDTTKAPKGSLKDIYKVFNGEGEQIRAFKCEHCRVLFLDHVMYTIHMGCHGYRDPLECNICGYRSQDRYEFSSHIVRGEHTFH
T1 sequence (Q96SW2 whole entry): as the sequence (Q96SW2 whole entry partner) above
T1 sequence (Q16531 whole entry partner): as the sequence (Q16531 whole entry partner) above

Take `CCCN(Cc1ccnc(-c2ccc3c(c2)CN(C2CCC(=O)NC2=O)C3=O)c1)CC1CC1` (stereo not shown) [Example 10, 3-(5-(4-(((cyclopropylmethyl)(propyl)amino)methyl)pyridin-2-yl)-1-oxoisoindolin-2-yl)piperidine-2,6-dione]: on Helios, it took 183 nM to reach half-maximal degradation (DC50) and the Dmax is 67%. At Ikaros, the half-maximal degradation concentration (DC50) was over 10000 nM and the Dmax was determined as 9%.

For `CN(Cc1ccnc(-c2ccc3c(c2)CN(C2CCC(=O)NC2=O)C3=O)c1)Cc1cncn1C` (stereo not shown) [Example 174, 3-(5-(4-((methyl((1-methyl-1H-imidazol-5-yl)methyl)amino)methyl)pyridin-2-yl)-1-oxoisoindolin-2-yl)piperidine-2,6-dione], at Helios, the DC50 was found to be 5870 nM and the Dmax was 54%. Further, on Ikaros, the DC50 is over 10000 nM and the Dmax was found to be 20%.

On to `O=C1CCC(N2Cc3cc(-c4cc(CN5CCC5c5ccccc5)ccn4)ccc3C2=O)C(=O)N1` (single isomer, unassigned) [Example 205, 3-(1-oxo-5-(4-((2-phenylazetidin-1-yl)methyl)pyridin-2-yl)isoindolin-2-yl)piperidine-2,6-dione], for which the DC50 at Helios and at Ikaros was over 10000 nM in each case. Further, the “Ikaros Dmax” value on Ikaros is 8.15% and 6%.

With `O=C1CCC(N2Cc3cc(-c4cc(CN5CC6CC5CO6)ccn4)ccc3C2=O)C(=O)N1` (stereo not shown) [Example 79, 3-(5-(4-((2-oxa-5-azabicyclo[2.2.1]heptan-5-yl)methyl)pyridin-2-yl)-1-oxoisoindolin-2-yl) piperidine-2,6-dione], at Helios, the DC50 was over 10000 nM and the Dmax was 26%. In addition, at Ikaros, the DC50 was over 10000 nM and the Dmax worked out at 8%.

For the compound `CC(=O)NCCNCc1ccnc(-c2ccc3c(c2)CN(C2CCC(=O)NC2=O)C3=O)c1` (stereo not shown) [Example 91, N-(2-(((2-(2-(2,6-dioxopiperidin-3-yl)-1-oxoisoindolin-5-yl)pyridin-4-yl)methyl)amino)ethyl)acetamide], the DC50 on Helios was 3530 nM; on Ikaros it was over 10000 nM. The maximal degradation (Dmax) at Helios is 60%; on Ikaros, 4%.

Take `Cc1ccc(C2CCN(Cc3ccnc(-c4ccc5c(c4)CN(C4CCC(=O)NC4=O)C5=O)c3)CC2)cc1` (stereo not shown) [Example 199, 3-(1-oxo-5-(4-((4-(p-tolyl)piperidin-1-yl)methyl)pyridin-2-yl)isoindolin-2-yl)piperidine-2,6-dione]: the DC50 at Helios is 130 nM; at Ikaros, over 10000 nM. For the same compound, the maximal degradation (Dmax) at Helios is 60%; at Ikaros it was 3%.

For `CC(CO)N(C)Cc1ccnc(-c2ccc3c(c2)CN(C2CCC(=O)NC2=O)C3=O)c1` (stereo not shown) [Example 181, 3-(5-(4-(((1-hydroxypropan-2-yl)(methyl)amino)methyl)pyridin-2-yl)-1-oxoisoindolin-2-yl) piperidine-2,6-dione], the DC50 on Helios is 499 nM; at Ikaros, over 10000 nM. Further, the values for the maximal degradation (Dmax) on Helios and at Ikaros were 83% and 10%, respectively.

Consider `CN(Cc1ccoc1)Cc1ccnc(-c2ccc3c(c2)CN(C2CCC(=O)NC2=O)C3=O)c1` (stereo not shown) [Example 172, 3-(5-(4-(((furan-3-ylmethyl)(methyl)amino)methyl)pyridin-2-yl)-1-oxoisoindolin-2-yl)piperidine-2,6-dione], for which, on Helios, the DC50 is 75 nM and the maximal degradation (Dmax) amounted to 90%. On Ikaros, the DC50 is over 10000 nM and the greatest degradation seen (Dmax) was 12%.

Take `CC1(C)CCN(Cc2ccnc(-c3ccc4c(c3)CN(C3CCC(=O)NC3=O)C4=O)c2)CC1` (stereo not shown) [Example 82, 3-(5-(4-((4,4-dimethylpiperidin-1-yl)methyl)pyridin-2-yl)-1-oxoisoindolin-2-yl)piperidine-2,6-dione]: at Helios, the half-maximal degradation concentration (DC50) stood at 9 nM and the Dmax turned out to be 89%. For the same compound, at Ikaros, the DC50 is over 10000 nM and the greatest degradation seen (Dmax) was 17%.

On to `Cc1ccccc1CNCc1ccnc(-c2ccc3c(c2)CN(C2CCC(=O)NC2=O)C3=O)c1` (stereo not shown) [Example 56, 3-(5-(4-(((2-methylbenzyl)amino)methyl)pyridin-2-yl)-1-oxoisoindolin-2-yl)piperidine-2,6-dione], for which, on Helios, the DC50 was 13 nM and the Dmax stood at 88%. Also, on Ikaros, the half-maximal degradation concentration (DC50) is over 10000 nM and the maximal degradation (Dmax) was found to be 18%.

Regarding `CC1(C)CN(Cc2ccnc(-c3ccc4c(c3)CN(C3CCC(=O)NC3=O)C4=O)c2)C1` (stereo not shown) [Example 51, 3-(5-(4-((3,3-dimethylazetidin-1-yl)methyl)pyridin-2-yl)-1-oxoisoindolin-2-yl)piperidine-2,6-dione], the DC50 at Helios is 64 nM; on Ikaros, over 10000 nM. Besides, the Dmax stood at 70% on Helios and 11% at Ikaros.

On to `CN(Cc1ccnc(-c2ccc3c(c2)CN(C2CCC(=O)NC2=O)C3=O)c1)Cc1nccs1` (stereo not shown) [Example 176, 3-(5-(4-((methyl(thiazol-2-ylmethyl)amino)methyl)pyridin-2-yl)-1-oxoisoindolin-2-yl)piperidine-2,6-dione], for which, on Helios, the DC50 was 1120 nM and the maximal degradation (Dmax) came to 65%. Further, on Ikaros, the DC50 is over 10000 nM and the Dmax was 30%.

As for `O=C1CCC(N2Cc3cc(-c4nccc(CN5CCC5c5ccccc5)c4F)ccc3C2=O)C(=O)N1` (stereo not shown) [Example 193, 3-(5-(3-fluoro-4-((2-phenylazetidin-1-yl)methyl)pyridin-2-yl)-1-oxoisoindolin-2-yl) piperidine-2,6-dione], on Helios, half-maximal degradation (DC50) was put at 120 nM and the Dmax was found to be 60%. Also, at Ikaros, the DC50 is over 10000 nM and the greatest degradation seen (Dmax) stood at 14%.

For the compound `CN1CCC(N(C)Cc2ccnc(-c3ccc4c(c3)CN(C3CCC(=O)NC3=O)C4=O)c2)C1` (stereo not shown) [Example 29, 3-(5-(4-((methyl(1-methylpyrrolidin-3-yl)amino)methyl)pyridin-2-yl)-1-oxoisoindolin-2-yl)piperidine-2,6-dione], on Helios, half-maximal degradation (DC50) was put at 7510 nM and the “Helios Dmax” value turned out to be 55%. In addition, on Ikaros, the 50% degradation concentration (DC50) is over 10000 nM and the maximal degradation (Dmax) worked out at 6%.

Consider `CC1CC(NCc2ccnc(-c3ccc4c(c3)CN(C3CCC(=O)NC3=O)C4=O)c2)CCO1` (stereo not shown) [Example 126, 3-(5-(4-(((2-methyltetrahydro-2H-pyran-4-yl)amino)methyl)pyridin-2-yl)-1-oxoisoindolin-2-yl) piperidine-2,6-dione], for which the DC50 is 82 nM at Helios and over 10000 nM at Ikaros. Besides, the Dmax at Helios is 99%; at Ikaros, 22%.

In the case of `O=C1CCC(N2Cc3cc(-c4cc(CNCCCc5ccccc5)ccn4)ccc3C2=O)C(=O)N1` (stereo not shown) [Example 98, 3-(1-oxo-5-(4-(((3-phenylpropyl)amino)methyl)pyridin-2-yl)isoindolin-2-yl)piperidine-2,6-dione], on Helios, half-maximal degradation (DC50) was put at 6 nM and the maximal degradation (Dmax) is 91%. On Ikaros, the DC50 is over 10000 nM and the Dmax was determined as 8%.

On to `C[C@@H]1CCN(Cc2ccnc(-c3ccc4c(c3)CN(C3CCC(=O)NC3=O)C4=O)c2)C1` (stereo partly drawn) [Example 70, 3-(5-(4-(((R)-3-methylpyrrolidin-1-yl)methyl)pyridin-2-yl)-1-oxoisoindolin-2-yl)piperidine-2,6-dione], for which, on Helios, half-maximal degradation (DC50) was put at 19 nM and the Dmax is 79%. In addition, on Ikaros, the DC50 was over 10000 nM and the Dmax is 10%.

On to `CC(C)CN(C)Cc1ccnc(-c2ccc3c(c2)CN(C2CCC(=O)NC2=O)C3=O)c1` (stereo not shown) [Example 179, 3-(5-(4-((isobutyl(methyl)amino)methyl)pyridin-2-yl)-1-oxoisoindolin-2-yl)piperidine-2,6-dione], for which, at Helios, half-maximal degradation (DC50) was put at 212 nM and the Dmax was 78%. Moreover, on Ikaros, the DC50 was over 10000 nM and the greatest degradation seen (Dmax) was 4%.

With `CN(Cc1ccc([N+](=O)[O-])cc1)Cc1ccnc(-c2ccc3c(c2)CN(C2CCC(=O)NC2=O)C3=O)c1` (stereo not shown) [Example 151, 3-(5-(4-((methyl(4-nitrobenzyl)amino)methyl)pyridin-2-yl)-1-oxoisoindolin-2-yl)piperidine-2,6-dione], at Helios, the DC50 was over 10000 nM and the Dmax came to 23%. Further, on Ikaros, the DC50 is over 10000 nM and the maximal degradation (Dmax) turned out to be 1%.

Turning to `O=C1CCC(N2Cc3cc(-c4cc(CNC5CCCCC5)ccn4)ccc3C2=O)C(=O)N1` (stereo not shown) [Example 87, 3-(5-(4-((cyclohexylamino)methyl)pyridin-2-yl)-1-oxoisoindolin-2-yl) piperidine-2,6-dione], the results for the DC50 at Helios and at Ikaros were 29 nM and over 10000 nM, respectively. Also, the greatest degradation seen (Dmax) was determined as 100% at Helios and 12% at Ikaros.

As to `O=C1CCC(N2Cc3cc(-c4cc(CN5CC[C@@H](c6ccccc6)C5)ccn4)ccc3C2=O)C(=O)N1` (stereo partly drawn) [Example 139, 3-(1-oxo-5-(4-(((S)-3-phenylpyrrolidin-1-yl)methyl)pyridin-2-yl)isoindolin-2-yl)piperidine-2,6-dione], on Helios, half-maximal degradation (DC50) was put at 25 nM and the maximal degradation (Dmax) was determined as 91%. Further, at Ikaros, the half-maximal degradation concentration (DC50) was over 10000 nM and the maximal degradation (Dmax) stood at 3%.

`O=C1CCC(N2Cc3cc(-c4cc(CNCCCn5ccnc5)ccn4)ccc3C2=O)C(=O)N1` (stereo not shown) [Example 113, 3-(5-(4-(((3-(1H-imidazol-1-yl)propyl)amino)methyl)pyridin-2-yl)-1-oxoisoindolin-2-yl)piperidine-2,6-dione]: on Helios, the DC50 worked out at 287 nM and the greatest degradation seen (Dmax) was determined as 81%. At Ikaros, the DC50 was over 10000 nM and the maximal degradation (Dmax) was 8%.

With `CC(NCc1ccnc(-c2ccc3c(c2)CN(C2CCC(=O)NC2=O)C3=O)c1)c1ccccc1` (stereo not shown) [Example 55, 3-(1-oxo-5-(4-(((1-phenylethyl)amino)methyl)pyridin-2-yl)isoindolin-2-yl) piperidine-2,6-dione], the figures for the half-maximal degradation concentration (DC50) on Helios and at Ikaros were 9 nM and over 10000 nM, respectively. The greatest degradation seen (Dmax) on Helios worked out at 91%; at Ikaros, 10%.
